“And” between values parts separate entries of the source, which are not always exact repeats. Identical values can stand only once.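 Following 48 hours of exposure in 96-well plates, responses at five concentrations were used to interpolate endpoints linearly. Abbreviation: GI50, concentration required for 50% inhibition of growth. The concentration for full growth arrest is given as TGI.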
Experiments:
Assay in all cases: DTP human tumour cell line panel, 48 h
[1] = test system: TK-10 renal
[2] = test system: EKVX NSCLC
[3] = test system: NCI-H23 lung
[4] = test system: SK-MEL-2 melanoma
[5] = test system: OVCAR-3 ovarian
[6] = test system: U251 CNS
[7] = test system: A549 NSCLC
[8] = test system: UACC-62 melanoma
[9] = test system: MDA-MB-231 breast
[10] = test system: NCI-H522 lung

| Structure (SMILES) | TGI [1] | TGI [2] | TGI [3] | TGI [4] | TGI [5] | TGI [6] | TGI [7] | TGI [8] | TGI [9] | TGI [10] | GI50 [2] | GI50 [3] | GI50 [4] | GI50 [5] | GI50 [6] | GI50 [7] | GI50 [9] | GI50 [10] |
| --- | --- | --- | --- | --- | --- | --- | --- | --- | --- | --- | --- | --- | --- | --- | --- | --- | --- | --- |
| C=C1C(=O)O[C@@H]2C[C@]3(C)CC[C@]4(C)[C@H](CC[C@@H]5[C@@]6(C)CCC(=O)C(C)(C)[C@@H]6CC[C@]54C)[C@H]3[C@H]12 | 30.3 µM | 38 µM | 57.3 µM | 47.7 µM | 35.5 µM | 38.4 µM | 46.9 µM | 32.9 µM | 47.1 µM | 23.2 µM | – | – | – | – | – | – | – | – |
| CCCCCCCCCCC1OC([C@@H](O)CC[C@H](O)C2CC[C@@H](CCCCCCCC(O)CC3=CC(C)OC3=O)O2)CCC1O (stereo partly drawn) | > 25 µM | > 25 µM | > 25 µM | > 18.1 µM | > 23.5 µM | > 25 µM | > 25 µM | > 25 µM | > 25 µM | > 25 µM | 9.5 µM | 1.35 µM | 6.55 µM | 1.69 µM | 4 µM | 2.49 µM | 5.88 µM | – |
| Cc1c2c(OCCN3CCCCC3)nn(C)c(=O)c2c(C)n1-c1ccccc1 | > 100 µM | > 100 µM | > 100 µM | 33.1 µM | > 100 µM | > 100 µM | > 100 µM | > 100 µM | > 100 µM | 84.1 µM | – | – | – | – | – | – | – | – |
| N#Cc1c(-c2ccccc2)[nH]c(=O)n(C2OC(CO)C(O)C(O)C2O)c1=O (stereo not drawn) | > 100 µM | > 100 µM | > 100 µM | > 100 µM | > 100 µM | > 100 µM | > 100 µM | > 100 µM | > 100 µM | 63.5 µM and > 100 µM | – | – | – | – | – | – | – | 27.6 µM and > 100 µM |
| CCCCON1C[C@H](OC(C)=O)C(OC(C)=O)[C@H](OC(C)=O)C1 (stereo partly drawn) | > 100 µM | > 100 µM | > 100 µM | > 100 µM | > 100 µM | > 100 µM | > 100 µM | > 100 µM | > 100 µM | > 100 µM | – | – | – | – | – | – | – | – |
| CC(=O)OCC1OC(Oc2cc(C)c(O)cc2C/C=C(\C)CC/C=C(\C)CC(=O)CC(C)C)C(O)C(OC(C)=O)C1OC(C)=O (stereo not drawn) | 41.1 µM | 16.3 µM | 18.8 µM | 26.6 µM | 30 µM | 41.9 µM | 20.3 µM | 39.1 µM | 31.1 µM | > 50 µM | – | – | – | – | – | – | – | – |

— PubChem BioAssay (NCI)
